Data reported in ChEMBL document CHEMBL3046368, “Synthesis of benzothiazole derivatives and their biological evaluation as anticancer agents” (2012).
The source made the active and inactive calls. No cut-off for these calls is given here.

Columns and labels:
[1] = molecular target: T1, Ubiquitin-like modifier-activating enzyme 1 (Homo sapiens) (UniProt P22314); assay: Inhibition of ubiquitin displacement on His6-tagged E2 enzyme from His6-tagged UBA1 (unknown origin) at 10 uM after 1.5 hr by SDS-PAGE analysis
T1 sequence (whole entry): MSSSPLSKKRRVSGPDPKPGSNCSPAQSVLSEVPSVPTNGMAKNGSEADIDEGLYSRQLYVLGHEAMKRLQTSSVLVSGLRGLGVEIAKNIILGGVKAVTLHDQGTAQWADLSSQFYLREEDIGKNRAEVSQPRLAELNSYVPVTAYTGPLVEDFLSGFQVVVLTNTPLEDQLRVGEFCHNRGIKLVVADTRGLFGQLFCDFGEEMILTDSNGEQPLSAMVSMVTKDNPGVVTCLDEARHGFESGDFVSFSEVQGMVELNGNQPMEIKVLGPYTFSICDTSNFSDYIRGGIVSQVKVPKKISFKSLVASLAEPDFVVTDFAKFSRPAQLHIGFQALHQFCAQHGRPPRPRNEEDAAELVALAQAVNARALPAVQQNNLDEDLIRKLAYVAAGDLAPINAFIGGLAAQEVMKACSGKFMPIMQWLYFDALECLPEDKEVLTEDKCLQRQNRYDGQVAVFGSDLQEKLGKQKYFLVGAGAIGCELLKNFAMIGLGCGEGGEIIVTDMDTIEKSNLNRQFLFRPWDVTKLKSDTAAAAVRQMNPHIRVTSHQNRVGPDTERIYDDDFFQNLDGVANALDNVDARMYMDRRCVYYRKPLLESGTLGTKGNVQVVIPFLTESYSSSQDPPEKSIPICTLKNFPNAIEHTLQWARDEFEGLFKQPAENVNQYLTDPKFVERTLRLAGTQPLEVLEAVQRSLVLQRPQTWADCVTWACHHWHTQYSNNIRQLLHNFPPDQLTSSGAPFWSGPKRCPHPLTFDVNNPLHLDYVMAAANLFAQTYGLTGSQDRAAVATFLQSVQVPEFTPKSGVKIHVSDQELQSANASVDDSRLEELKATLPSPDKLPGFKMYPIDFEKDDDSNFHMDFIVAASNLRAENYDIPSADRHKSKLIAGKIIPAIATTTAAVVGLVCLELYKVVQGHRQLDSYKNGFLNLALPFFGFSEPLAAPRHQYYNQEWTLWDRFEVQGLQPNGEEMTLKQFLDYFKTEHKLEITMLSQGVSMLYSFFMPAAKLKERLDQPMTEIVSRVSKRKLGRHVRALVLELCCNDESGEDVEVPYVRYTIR

T47D = assay: Cytotoxicity against Homo sapiens (human) T47D cells after 48 hr by SRB assay; assay type: functional
BT-549 = assay: Cytotoxicity against Homo sapiens (human) BT549 cells after 48 hr by SRB assay; assay type: functional; settings: BT-549, 48 h
Hs-578T = assay: Cytotoxicity against Homo sapiens (human) Hs578T cells after 48 hr by SRB assay; assay type: functional
DU-145 = assay: Cytotoxicity against Homo sapiens (human) DU145 cells after 48 hr by SRB assay; assay type: functional; settings: DU-145, 48 h
TK-10 = assay: Cytotoxicity against Homo sapiens (human) TK10 cells after 48 hr by SRB assay; assay type: functional; settings: TK-10, 48 h
UO-31 = assay: Cytotoxicity against Homo sapiens (human) UO31 cells after 48 hr by SRB assay; assay type: functional; settings: UO-31, 48 h
RXF 393 = assay: Cytotoxicity against Homo sapiens (human) RXF393 cells after 48 hr by SRB assay; assay type: functional; settings: RXF 393, 48 h
A498 = assay: Cytotoxicity against Homo sapiens (human) A498 cells after 48 hr by SRB assay; assay type: functional; settings: A498, 48 h
786-0 = assay: Cytotoxicity against Homo sapiens (human) 786-0 cells after 48 hr by SRB assay; assay type: functional; settings: 786-0, 48 h
SK-OV-3 = assay: Cytotoxicity against Homo sapiens (human) SKOV3 cells after 48 hr by SRB assay; assay type: functional; settings: SK-OV-3, 48 h
OVCAR-4 = assay: Cytotoxicity against Homo sapiens (human) OVCAR4 cells after 48 hr by SRB assay; assay type: functional; settings: OVCAR-4, 48 h
UACC-62 = assay: Cytotoxicity against Homo sapiens (human) UACC62 cells after 48 hr by SRB assay; assay type: functional; settings: UACC-62, 48 h
SK-MEL-2 = assay: Cytotoxicity against Homo sapiens (human) SK-MEL-2 cells after 48 hr by SRB assay; assay type: functional; settings: SK-MEL-2, 48 h
MDA-MB-435 = assay: Cytotoxicity against Homo sapiens (human) MDA-MB-435 cells after 48 hr by SRB assay; assay type: functional; settings: MDA-MB-435, 48 h
U-251 = assay: Cytotoxicity against Homo sapiens (human) U251 cells after 48 hr by SRB assay; assay type: functional; settings: U-251, 48 h
SNB-75 = assay: Cytotoxicity against Homo sapiens (human) SNB75 cells after 48 hr by SRB assay; assay type: functional; settings: SNB-75, 48 h
SR = assay: Cytotoxicity against Homo sapiens (human) SR cells after 48 hr by SRB assay; assay type: functional
[2] = Cytotoxicity against Homo sapiens (human) renal cancer cells assessed as cell growth at 10^-5 M after 48 hr by SRB assay relative to control; assay type: functional; settings: Cancer cell lines, read-out: Activity
[3] = Cytotoxicity against Homo sapiens (human) CNSC cells assessed as cell growth at 10^-5 M after 48 hr by SRB assay relative to control; assay type: functional; settings: read-out: Activity
[4] = Cytotoxicity against Homo sapiens (human) leukemia cells assessed as cell growth at 10^-5 M after 48 hr by SRB assay relative to control; assay type: functional; settings: read-out: Activity
HL-60(TB) = assay: Cytotoxicity against Homo sapiens (human) HL-60(TB) cells after 48 hr by SRB assay; assay type: functional; settings: HL-60, 48 h
NCI-H460 = assay: Cytotoxicity against Homo sapiens (human) NCI-H460 cells after 48 hr by SRB assay; assay type: functional; settings: NCI-H460, 48 h
HOP-62 = assay: Cytotoxicity against Homo sapiens (human) HOP62 cells after 48 hr by SRB assay; assay type: functional; settings: HOP-62, 48 h

N#Cc1ccc(NC(=O)Nc2nc3ccc(OC(F)(F)F)cc3s2)cc1
inhibition [1]: inactive | GI50 (T47D): 427 nM | GI50 (BT-549): 2.75 µM | GI50 (Hs-578T): 1780 nM | GI50 (DU-145): 2.69 µM | GI50 (TK-10): 1230 nM | GI50 (UO-31): 1660 nM | GI50 (RXF 393): 1860 nM | GI50 (A498): 468 nM | GI50 (786-0): 2000 nM | GI50 (SK-OV-3): 2630 nM | GI50 (OVCAR-4): 1620 nM | GI50 (UACC-62): 741 nM | GI50 (SK-MEL-2): 1780 nM | GI50 (MDA-MB-435): 1410 nM | GI50 (U-251): 1410 nM | GI50 (SNB-75): 1820 nM | GI50 (SR): 741 nM | growth at 10 µM [2]: -7.46% | growth at 10 µM [3]: 2.6% | growth at 10 µM [4]: -17.4% | GI50 (HL-60(TB)): 2450 nM | GI50 (NCI-H460): 603 nM | GI50 (HOP-62): 2.51 µM

O=C(Nc1ccc(F)cc1)Nc1nc2ccc(OC(F)(F)F)cc2s1
inhibition [1]: inactive | GI50 (T47D): 2630 nM | GI50 (BT-549): 3.8 µM | GI50 (Hs-578T): 3090 nM | GI50 (DU-145): 3.47 µM | GI50 (TK-10): 4070 nM | GI50 (UO-31): 3470 nM | GI50 (RXF 393): 2690 nM | GI50 (A498): 2950 nM | GI50 (786-0): 3470 nM | GI50 (SK-OV-3): 2570 nM | GI50 (OVCAR-4): 2950 nM | GI50 (UACC-62): 3550 nM | GI50 (SK-MEL-2): 3090 nM | GI50 (MDA-MB-435): 2950 nM | GI50 (U-251): 3980 nM | GI50 (SNB-75): 3470 nM | GI50 (SR): 3720 nM | growth at 10 µM [2]: 15.8% | growth at 10 µM [3]: 21.1% | growth at 10 µM [4]: 17.3% | GI50 (HL-60(TB)): 3020 nM | GI50 (NCI-H460): 3020 nM | GI50 (HOP-62): 3.8 µM
